Measured values: the supplement of paper PMC4862054

How the values were obtained:
Settings in all cases: incubation time: 72 h
[1] = system: MFM-223; test: drug sensitivity score (DSS), CellTiter-Glo (DSS (AUC-based score)); higher = stronger drug effect (viability inhibition or cytotoxicity); extreme values may be limits of the assay
Method in brief: (§1)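 Compound was dispensed into 384-well plates at 5 concentrations in 10-fold steps spanning a 10,000-fold range chosen for each compound, and 20 µl of breast cancer cell suspension was added before 72 h of incubation. CellTox Green fluorescence was read at 485/520 nm, followed by CellTiter-Glo luminescence after 10 min at room temperature. Values on each plate were normalised to 0.1 % DMSO and a positive kill control. The drug sensitivity score came from the area under the fitted dose-response curve.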

[2] = system: MDA-MB-468; test: as above
Method in brief: as §1

[3] = system: MDA-MB-453; test: as above
Method in brief: as §1

[4] = system: MCF-10A; test: as above
Method in brief: as §1

[5] = system: HDQ-P1; test: as above
Method in brief: as §1

[6] = system: CAL-120; test: as above
Method in brief: as §1

[7] = system: CAL-51; test: as above
Method in brief: as §1

[8] = system: HCC1937; test: as above
Method in brief: as §1

[9] = system: CAL-148; test: as above
Method in brief: as §1

[10] = system: HCC1599; test: drug sensitivity score (DSS), CellTox Green (DSS (AUC-based score)); higher = stronger drug effect (viability inhibition or cytotoxicity); extreme values may be limits of the assay
Method in brief: as §1

[11] = system: DU-4475; test: as above
Method in brief: as §1

[12] = system: MFM-223; test: as above
Method in brief: as §1

[13] = system: MDA-MB-468; test: as above
Method in brief: as §1

[14] = system: MDA-MB-453; test: as above
Method in brief: as §1

[15] = system: MDA-MB-436; test: as above
Method in brief: as §1

[16] = system: MCF-10A; test: as above
Method in brief: as §1

[17] = system: HDQ-P1; test: as above
Method in brief: as §1

[18] = system: CAL-120; test: as above
Method in brief: as §1

[19] = system: CAL-85-1; test: as above
Method in brief: as §1

[20] = system: Hs578T; test: as above
Method in brief: as §1

[21] = system: MDA-MB-231; test: as above
Method in brief: as §1

[22] = system: BT-474; test: as above
Method in brief: as §1

[23] = system: CAL-51; test: as above
Method in brief: as §1

[24] = system: HCC1937; test: as above
Method in brief: as §1

[25] = system: CAL-148; test: as above
Method in brief: as §1

[26] = system: BT-549; test: as above
Method in brief: as §1

[27] = system: HCC1143; test: as above
Method in brief: as §1

Structure (SMILES) | drug sensitivity score [1] | drug sensitivity score [2] | drug sensitivity score [3] | drug sensitivity score [4] | drug sensitivity score [5] | drug sensitivity score [6] | drug sensitivity score [7] | drug sensitivity score [8] | drug sensitivity score [9] | drug sensitivity score [10] | drug sensitivity score [11] | drug sensitivity score [12] | drug sensitivity score [13] | drug sensitivity score [14] | drug sensitivity score [15] | drug sensitivity score [16] | drug sensitivity score [17] | drug sensitivity score [18] | drug sensitivity score [19] | drug sensitivity score [20] | drug sensitivity score [21] | drug sensitivity score [22] | drug sensitivity score [23] | drug sensitivity score [24] | drug sensitivity score [25] | drug sensitivity score [26] | drug sensitivity score [27]
COC(=O)c1ccc2c(c1)NC(=O)/C2=C(\Nc1ccc(N(C)C(=O)CN2CCN(C)CC2)cc1)c1ccccc1 [Nintedanib] | 7.98 | 5.28 | 1.67 | 8.49 | 6.77 | 3.62 | 8.21 | 3.95 | 0 | 0 | 0 | 0 | 2.7 | 0 | 1.22 | 1.89 | 0 | 0 | 0 | 0 | 7.47 | 6.74 | 6.03 | 7.85 | 0 | 2.06 | 0
C=C1C[C@@H]2[C@H](CC[C@]3(C)C(=O)CC[C@@H]23)[C@@]2(C)C=CC(=O)C=C12 [Exemestane] | 0 | 0 | 0 | 0 | 0 | 0 | 0 | 0 | 0 | 0 | 0 | 0 | 0 | 0 | 0 | 0 | 3.28 | 0 | 1.08 | 0 | 0 | 0 | 0 | 0 | 0 | 0 | 0
c1ccc2c(CCNc3ccc(Nc4ccncc4)cc3)c[nH]c2c1 [Serdemetan] | 1.34 | 7.12 | 1.37 | 0 | 2.35 | 0 | 15.9 | 3.14 | 7.11 | 0 | 1.51 | 1.92 | 0 | 0 | 0 | 0 | 0 | 0 | 0 | 0 | 2.18 | 0 | 4.55 | 0 | 6.44 | 0 | 0
S=P(N1CC1)(N1CC1)N1CC1 [Thio-TEPA] | 0 | 0 | 0 | 0 | 0 | 0 | 0 | 0 | 0 | 0 | 0 | 0 | 0 | 0 | 0 | 0 | 0 | 0 | 0 | 3.7 | 0 | 0 |  | 0 | 0 | 0 | 
O=P1(N(CCCl)CCCl)NCCCO1 (stereo not given) [Cyclophosphamide] | 0 | 0 | 0 | 0 | 0 | 0 | 0 | 0 | 0 | 0 | 0 | 0 |  | 0 | 0 | 0 | 0 | 0 | 0 |  | 0 | 0 | 0 | 0 | 0 | 0 | 0
Cc1ccc(NC(=O)c2ccc(CN3CCN(C)CC3)cc2)cc1Nc1nc(-c2cccnc2)cs1 [Masitinib] | 0.34 | 4.71 | 3.95 | 0 | 0.939 | 0 | 4.22 | 0.648 | 0 | 0.597 | 0 | 0 | 1.39 | 0 |  | 0 | 0 | 0 | 0 | 1.55 | 5.53 | 0 | 0 | 0 | 0 | 0 | 0
NC(=O)c1ccc(I)c([N+](=O)[O-])c1 [Iniparib] | 0 | 3.75 | 0 | 0 | 0 | 0 | 0 | 0 | 0 | 0 | 0 | 0 | 0 | 0 | 0 | 1.4 | 1.99 | 0.0859 | 0 |  | 0 | 0 | 0.811 | 0 | 0 | 0 | 1.54
CNC(=O)c1ccc(N2C(=S)N(c3ccc(C#N)c(C(F)(F)F)c3)C(=O)C23CCC3)cc1F [RD162] | 0 | 0 | 0 | 0 | 0 | 0 | 0 | 0 | 0 | 0 | 0 | 0 | 0 | 0 | 0 | 0 | 0 | 0 | 0 | 0 | 0 | 0 | 0 | 0 | 0 | 0 | 
COCC1(CO)C(=O)C2CCN1CC2 (stereo not given) [Prima-1 Met] | 0 | 0 | 0 | 0 | 0 | 0 | 0 | 0 | 0 | 0 | 0 | 0 | 0 | 0 |  | 0 | 0 | 0 | 0 | 0 | 0 | 0 | 0 | 1.24 | 0 | 0 | 0
COc1cc(OC2CCN(C)CC2)ccc1Nc1ncc2c(n1)n(C1CCCC1)c(=O)n2C [AZ 3146] | 0 | 2.06 | 0 | 2.22 | 0 | 0.593 | 5.98 | 0 | 0 | 2.26 | 0 | 0 | 0 | 0 | 4.7 | 0 | 0 | 0 | 0 | 0 | 0 | 0 | 9.75 |  | 0 | 0 | 0
CCn1c(-c2nonc2N)nc2cnc(Oc3cccc(NC(=O)c4ccc(OCCN5CCOCC5)cc4)c3)cc21 | 0 | 0 | 0 | 6.73 | 1.87 | 6.49 | 4.84 | 0 | 2.07 | 0 | 0 | 0 | 0.303 | 0 | 0 | 0 | 0 | 0 | 0 | 0 | 4.85 | 0 | 11.2 | 0 | 0 | 0 | 
O=C(Nc1cccnc1)N1CCC(Cc2cccc(Oc3ccc(C(F)(F)F)cn3)c2)CC1 [PF-3845] | 0 | 3.47 | 0 | 0 | 0 | 0.24 | 2.47 | 0 | 0 | 0 | 0 | 0 | 0 | 0 | 0 | 0 |  | 0 | 0 | 0 | 0 | 0 | 0 | 0 | 0 | 0 | 0
CN(C)CCOc1ccc(/C(=C(/CCCl)c2ccccc2)c2ccccc2)cc1 [Toremifene] | 0.949 | 0 | 0 | 1.79 | 0 | 0 | 0 | 1.98 | 0 | 0 | 0 | 0 | 4.22 | 0 | 0 | 0 | 0 | 0 | 0 | 0 |  | 2.47 | 0 | 5.17 | 0 | 0 | 2.33
COc1cc2ncnc(Nc3ccc(F)c(Cl)c3)c2cc1OCCCN1CCOCC1 [Gefitinib] | 0 | 5.4 | 0 | 17.7 | 7.21 | 0 | 0 | 2.45 | 2.08 | 0 | 0 | 0 | 0 | 0 | 0 | 0 | 0 | 0 | 4.48 | 0 | 0.542 |  | 0 | 0 | 2.34 | 0 | 0
